Results reported in patent US6841577B2, “Pesticidal activity of plant essential oils and their constituents” (Ecosmart Technologies, Inc., priority 1999, dated 2005).

Tests used:
[1] = test system: octopamine receptor sites; test: 3H-OA binding to ventral nerve cord / synaptosomal membrane protein; parameters: species or system American cockroach (Periplaneta americana); conditions: for classification with respect to octopamine receptor sites (OAR): based on the binding data of Tables 1-3; for dpm 3H-OA/500 μg protein: Table 2
Method: Different concentrations of unlabeled octopamine (OA) (20, 30, 40, 50, 60, 100 ng) were tested on the binding activity as a positive control. Test chemicals were dissolved in acetone before the assay. Different concentrations of the test chemicals were added directly to the protein preparation from ventral nerve cord. The same amount of solvent (1 μl 0.1%) were added to the control samples. All assays with test chemicals were run in the presence and absence of 50 ng OA. All chemicals were added to the protein extract 20 min prior the addition of radio labeled ^3H-OA(100,000 cpm/sample). After 30 min at 24° C. of the addition of ^3H-OA, the reaction was stopped by the addition of ice-cold Tris buffer, and the samples were filtered through GF/C membrane using water vacuum. After two washes each with 5 ml Tris buffer, the membrane was removed, air dried and the radioactivity was counted in 4 ml liquid scintillation solution. The specific binding was calculated as the difference between the values in the presence and absence of unlabeled OA. All data are calculated as the mean±standard deviation of 5 assays.
Additional tests were conducted on radio labeled octopamine using other purified naturally occurring materials as given in Tables 2 and 3.

[2] = test system: heart of American cockroach (octopamine receptors); test: Heartbeat after application to thoracic segment; format: in vivo; conditions: mean ±SD of three roaches; for Heart beat/30 sec 30 min after treatment: 300 μg applied to thoracic segment; for Heart beat/30 sec before treatment: baseline of the same roaches
Method: To further establish the effect of the purified naturally occurring plant essential oils and/or their constituents on the American cockroach, a 300 μg amount of the chemical was applied to the thoracic segment of an intact and alive American cockroach. The heart beats/30 seconds was measured. The heart of the cockroach is known to have a high concentration of octopamine receptors and the heart beat is considered an important measurement to indicate the effect of the applied chemicals to the octopamine receptors.

[3] = test system: American cockroach; test: Lethal effect of injected test chemicals; format: in vivo
Method: Further studies were conducted to determine the LD 50 of purified naturally occurring plant essential oils and/or their constituents. […] Ten roaches per dose were used. Another group of ten roaches received the same volume of vehicle only (0.5 μl) and used as a control group. Mortality was recorded 24, 48, and 72 hours after exposure.

[4] = test system: American cockroach; test: Cross walk jar test on pre-treated surface; format: in vivo; conditions: for mortality at 10 mg / mortality at 100 mg: Periplaneta americana
Method: In the test, a known amount of the test material was dissolved in a known volume of acetone and applied to small jars and all inner bottom surfaces were covered. The bottom surface of each jar is approximately 250 cm^2. One hour after the acetone had completely evaporated, five American cockroaches were introduced to each jar. Control jars were treated exactly as above but with the known amount of acetone only.
The results of the “cross walk” jar tests are in Table 8 in which the “4-blend” was dispersed as an aerosol and a dust in the jar.
In this test, the acetone solution of the test material was placed in the jar and the roach inserted into the jar after the acetone had evaporated.
Mortality was measured 24 hours after exposure.
The “4-blend” and the individual constituents of the “4-blend” were tested using 10 cockroaches for each “cross walk” treatment. In addition, pyrethrins were tested separately and mixed with the various components.
A concentration of 100 mg/jar was used for each individual alone. In the co-treatment experiment without pyrethrins, 20 mg/jar for each chemical was used. In the cotreatment experiment with pyrethrins, 20 mg/jar for the naturally occurring plant material was used. Pyrethrins was used at 2 mg/jar. […] It was noted above that the mortality is dependent upon concentration. […] Some synergism is found between pyrethrins and either α-terpineol or benzyl alcohol.

[5] = test system: 2nd instar green peach aphid nymphs; test: Cabbage leaf disc bioassay; format: in vivo
Method: A bioassay similar to that for S. litura larvae was used for additional larvae. Cabbage leaf discs were dipped in emulsified aqueous solutions, diluted 1:200 in water, on which 2nd instar green peach aphid nymphs were placed. For each treatment there was 10 aphids per disc with 5 replicates; each experiment was replicated in time (successive days) from 3-5 times. After 24 hours, aphids were reported as being (1) on the leaf disc and feeding; (2) alive, but walking off the disc; or (3) dead. In the field, aphids which cease feeding and abandon a host plant are very unlikely to survive.

[6] = 500 ng/ml, Table 3, solvent control 1385 ± 101
[7] = 500 μg/roach injected into thoracic and abdominal segments, 24 hr., dead/10
[8] = 500 μg/roach injected, 48 hr., dead/10
[9] = 500 μg/roach injected, 72 hr., dead/10, control 1/10
[10] = 500 ng/ml, solvent control 1101 ± 120
[11] = 1000 ng/ml, solvent control 930 ± 89

Compound: OCc1ccc2c(c1)OCO2 [Piperonyl alcohol]
- agonist/antagonist note to 3H-OA binding ([1]; 500 ng/ml): antagonist
- cpm 3H-OA/500 μg protein [1, 6]: 1124 ± 083 cpm 3H-OA/500 μg protein
- cpm 3H-OA/500 μg protein ([1]; 1000 ng/ml, Table 3, solvent control 1915 ± 110): 862 ± 61 cpm 3H-OA/500 μg protein

Compound: O=Cc1ccc2c(c1)OCO2 [Piperonal]
- cpm 3H-OA/500 μg protein [1, 6]: 1680 ± 131 cpm 3H-OA/500 μg protein
- classification with respect to octopamine receptor sites (OAR) [1]: Non-OAR Specific Toxicants

Compound: C=C(C)[C@H]1CC=C(C)CC1 [R-limonene]
- cpm 3H-OA/500 μg protein [1, 6]: 1436 ± 133 cpm 3H-OA/500 μg protein
- classification with respect to octopamine receptor sites (OAR) [1]: Non-OAR Specific Toxicants

Compound: CC(=O)OCc1ccccc1 [Benzyl Acetate]
- Heart beat/30 sec 30 min after treatment [2]: 42 ± 1 beat/30 sec
- Heart beat/30 sec before treatment [2]: 45 ± 2 beat/30 sec

Compound: C=C(C)[C@H]1CC=C(C)CC1 [d-limonene]
- Mortality [3, 7]: 0/10
- Mortality [3, 8]: 0/10
- Mortality [3, 9]: 0/10
- activity/binding at octopamine receptor sites, in words [1]: no activity against octopamine receptor sites
- dpm 3H-OA/500 μg protein [1, 10]: 1194 ± 101 dpm 3H-OA/500 μg protein
- dpm 3H-OA/500 μg protein [1, 11]: 866 ± 71 dpm 3H-OA/500 μg protein

Compound: CC12CCC(CC1)C(C)(C)O2 [Eucaluptol, Eucalyptol]
- Mortality [3, 7]: 0/10
- Mortality [3, 8]: 0/10
- Mortality [3, 9]: 0/10
- agonist/antagonist note to 3H-OA binding ([1]; 500 ng/ml): antagonist
- dpm 3H-OA/500 μg protein [1, 10]: 865 ± 45 dpm 3H-OA/500 μg protein
- cpm 3H-OA/500 μg protein [1, 6]: 1637 ± 095 cpm 3H-OA/500 μg protein
- dpm 3H-OA/500 μg protein [1, 11]: 653 ± 36 dpm 3H-OA/500 μg protein
- classification with respect to octopamine receptor sites (OAR) [1]: Non-OAR Specific Toxicants

Compound: OC/C=C/c1ccccc1 [Cinnamic Alcohol]
- Heart beat/30 sec 30 min after treatment [2]: 54 ± 3 beat/30 sec
- Heart beat/30 sec before treatment [2]: 52 ± 2 beat/30 sec

Compound: CC(C)=C1CC[C@@H](C)CC1=O [pulegone]
- Mortality ([3]; 50 μg injected through the end of the abdominal segment, 48 hr. after treatment): 20%
- Mortality 24 hr after treatment ([3]; 300 μg, dead/10): 3/10
- Mortality 24 hr after treatment ([3]; 400 μg, dead/10): 5/10
- Mortality [3, 7]: 6/10
- Mortality [3, 8]: 6/10
- Mortality [3, 9]: 7/10
- Mortality 24 hr after treatment ([3]; 500 μg, dead/10): 5/10
- Mortality 24 hr after treatment ([3]; 600 μg, dead/10): 8/10
- Mortality 24 hr after treatment ([3]; 700 μg, dead/10): 10/10
- cpm 3H-OA/500 μg protein ([1]; 300 ng test chemical, Table 1, solvent control 1280 ± 259): 936 ± 33 cpm 3H-OA/500 μg protein
- cpm 3H-OA/500 μg protein ([1]; 500 ng test chemical, Table 1, solvent control 1280 ± 259): 778 ± 22 cpm 3H-OA/500 μg protein
- cpm 3H-OA/500 μg protein ([1]; 700 ng test chemical, Table 1, solvent control 1280 ± 259): 662 ± 51 cpm 3H-OA/500 μg protein
- cpm 3H-OA/500 μg protein ([1]; 1000 ng test chemical, Table 1, solvent control 1280 ± 259): 435 ± 22 cpm 3H-OA/500 μg protein
- cpm 3H-OA/500 μg protein ([1]; 1500 ng test chemical, Table 1, solvent control 1280 ± 259): 217 ± 18 cpm 3H-OA/500 μg protein
- classification with respect to octopamine receptor sites (OAR) [1]: high OAR antagonists
- mortality at 10 mg ([4]; 24 h): 100%
- pesticidal activity against cockroaches, in words ([4]; in vivo): high pesticidal activity

Compound: OCCc1ccccc1 [phenethyl alcohol]
- Heart beat/30 sec 30 min after treatment [2]: 29 ± 2 beat/30 sec
- Heart beat/30 sec before treatment [2]: 47 ± 2 beat/30 sec
- Mortality [3, 7]: 0/10
- Mortality [3, 8]: 0/10
- Mortality [3, 9]: 0/10
- mortality at 100 mg ([4]; 24 h): 0%
- mortality at 100 mg ([4]; 48 h): 0%
- mortality at 100 mg ([4]; 72 h): 0%

Compound: Citronellal 80
- agonist/antagonist note to 3H-OA binding ([1]; 500 ng/ml): antagonist
- dpm 3H-OA/500 μg protein [1, 10]: 725 ± 95 dpm 3H-OA/500 μg protein
- dpm 3H-OA/500 μg protein [1, 11]: 526 ± 33 dpm 3H-OA/500 μg protein
- classification with respect to octopamine receptor sites (OAR) [1]: moderate OAR antagonists

Compound: OCc1ccccc1 [Benzyl Alcohol]
- Heart beat/30 sec 30 min after treatment [2]: 39 ± 2 beat/30 sec
- Heart beat/30 sec before treatment [2]: 45 ± 3 beat/30 sec
- activity on green peach aphid nymphs, in words ([5]; 1:200 dilution): relatively inactive
- Percentage of aphids Walking (off disc) ([5]; diluted 1:200 in water, after 24 hours, n = 250, Table 16, control 23.4): 22.3%
- Percentage of aphids Dead ([5]; diluted 1:200 in water, after 24 hours, n = 250, Table 16, control 24.8): 32.8%
- Percentage of aphids Feeding ([5]; diluted 1:200 in water, after 24 hours, n = 250, Table 16, control 51.7): 44.5%
- mortality at 100 mg ([4]; 24 h): 0%
- mortality at 100 mg ([4]; 48 h): 20%
- mortality at 100 mg ([4]; 72 h): 40%
- mortality at 10 mg ([4]; inhaled or nasal): 100%
